Measured values published in patent US20090111801A1, “SUBSTITUTED PYRAZINONE DERIVATIVES FOR USE AS A MEDICINE” (Janssen Pharmaceutica N.V., priority 2006, published 2009).

How the values were obtained:
[1] = target: T1, hα2A receptor (Homo sapiens, UniProt P08913); experiment: Radioligand binding experiment for α2A-adrenoceptor ([3H]raulwolscine, CHO cell membranes); details: [3H]raulwolscine binding; for IC50: read-out: h-α2A pIC50 (converted)
T1 construct: expressed in transfected cells; host or cells: CHO cells, stably transfected; membrane preparation
T1 sequence (P08913 1-465): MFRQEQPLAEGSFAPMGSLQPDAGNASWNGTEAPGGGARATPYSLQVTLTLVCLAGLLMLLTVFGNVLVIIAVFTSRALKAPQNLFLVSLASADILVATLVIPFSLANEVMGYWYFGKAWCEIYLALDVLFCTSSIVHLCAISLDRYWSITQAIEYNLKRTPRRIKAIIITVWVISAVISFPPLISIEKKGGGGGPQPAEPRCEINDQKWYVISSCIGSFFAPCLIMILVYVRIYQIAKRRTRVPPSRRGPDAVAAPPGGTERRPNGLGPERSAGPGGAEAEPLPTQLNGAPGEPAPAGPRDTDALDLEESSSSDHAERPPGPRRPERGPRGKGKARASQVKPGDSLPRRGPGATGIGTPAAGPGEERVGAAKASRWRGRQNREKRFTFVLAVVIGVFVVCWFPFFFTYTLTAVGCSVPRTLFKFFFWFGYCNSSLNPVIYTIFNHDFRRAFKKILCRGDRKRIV

[2] = target: T2, hα2C receptor (Homo sapiens, UniProt P18825); experiment: Radioligand binding experiment for α2C-adrenoceptor ([3H]raulwolscine, CHO cell membranes); details: [3H]raulwolscine binding; for IC50: read-out: h-α2C pIC50 (converted)
T2 construct: expressed in transfected cells; host or cells: CHO cells, stably transfected; membrane preparation
T2 sequence (P18825 1-462): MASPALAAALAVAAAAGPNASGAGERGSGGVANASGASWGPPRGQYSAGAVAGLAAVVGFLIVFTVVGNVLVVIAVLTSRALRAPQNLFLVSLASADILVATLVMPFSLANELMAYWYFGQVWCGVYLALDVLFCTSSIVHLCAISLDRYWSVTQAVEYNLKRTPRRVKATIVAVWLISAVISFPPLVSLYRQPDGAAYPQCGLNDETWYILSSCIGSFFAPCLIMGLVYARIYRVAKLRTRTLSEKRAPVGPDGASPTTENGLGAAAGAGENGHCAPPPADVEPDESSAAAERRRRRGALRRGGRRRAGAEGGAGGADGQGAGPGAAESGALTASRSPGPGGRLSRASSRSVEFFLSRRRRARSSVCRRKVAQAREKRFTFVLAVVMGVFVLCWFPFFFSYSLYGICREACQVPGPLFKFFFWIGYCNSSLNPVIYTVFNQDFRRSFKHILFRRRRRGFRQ

[3] = target: T3, 5HT-Transporter (Homo sapiens, UniProt P31645); experiment: Binding experiment for the 5HT-transporter ([3H]paroxetine, human platelet membranes); details: [3H]paroxetine 0.5 nM; for IC50: read-out: h-5HTT pIC50 (converted)
T3 construct: Human platelet membranes (Oceanix Biosciences Corporation, Hanover, Md., USA) were thawed; tissue Oceanix Biosciences Corporation, Hanover, Md., USA; host or cells: human platelet membranes
In short: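 Competition binding of [3H]paroxetine to human platelet membranes in Tris-HCl 50 mM, 120 mM NaCl, 5 mM KCl, with filtration and scintillation counting.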

T3 sequence (P31645 whole entry): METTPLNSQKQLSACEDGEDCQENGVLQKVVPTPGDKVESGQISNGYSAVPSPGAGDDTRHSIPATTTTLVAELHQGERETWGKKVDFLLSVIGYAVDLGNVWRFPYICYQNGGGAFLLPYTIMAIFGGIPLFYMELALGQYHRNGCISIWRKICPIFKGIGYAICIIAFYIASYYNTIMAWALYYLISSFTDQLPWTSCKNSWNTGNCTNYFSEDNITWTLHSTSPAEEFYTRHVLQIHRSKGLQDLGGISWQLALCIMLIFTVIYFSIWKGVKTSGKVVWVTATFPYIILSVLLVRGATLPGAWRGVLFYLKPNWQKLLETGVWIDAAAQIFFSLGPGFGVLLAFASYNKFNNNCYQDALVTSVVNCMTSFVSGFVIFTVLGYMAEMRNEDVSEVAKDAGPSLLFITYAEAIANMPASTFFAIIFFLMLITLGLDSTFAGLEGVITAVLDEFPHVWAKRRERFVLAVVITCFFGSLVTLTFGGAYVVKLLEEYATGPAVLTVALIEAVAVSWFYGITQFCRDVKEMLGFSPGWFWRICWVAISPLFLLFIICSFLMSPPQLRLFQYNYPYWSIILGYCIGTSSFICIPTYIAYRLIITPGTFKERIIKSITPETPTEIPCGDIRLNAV

SMILES | IC50 [1] [nM] | IC50 [2] [nM] | IC50 [3] [nM] | h-α2A pIC50 [1] | h-α2C pIC50 [2] | h-5HTT pIC50 [3]
C/C(=C\c1ccccc1)CN1CCN(c2nccn(CCOCc3ccccc3)c2=O)CC1 [10-3] | 398 | 79.4 | 1260 |  |  | 
C/C(=C\c1ccccc1)CN1CCC(Nc2nccn(-c3ccc(C(=O)N4CCN(CCc5ccccc5)CC4)cc3)c2=O)CC1 [2-33] | 126 | 15.8 | 200 |  |  | 
C/C(=C\c1ccccc1)CN1CCC(Nc2nccn(-c3ccc(NCc4ccccc4)cc3)c2=O)CC1 [1-50] | 100 | 3.16 | 631 |  |  | 
C/C(=C\c1ccccc1)CN1CCC(Nc2nccn(CC(=O)N(C)CCO)c2=O)CC1 [1-21] | 316 | 20 | 2510 |  |  | 
C/C(=C\c1ccccc1)CN1CCC(Nc2nccn(CC(=O)N(CCN3CCCC3)Cc3ccc(F)cc3)c2=O)CC1 [1-136] | 10 | 0.316 | 631 |  |  | 
C/C(=C\c1ccccc1)CN1CCC(Nc2nccn(Cc3cccc(C(F)(F)F)c3)c2=O)CC1 [5-22] | 126 | 50.1 | 794 |  |  | 
C/C(=C\c1ccccc1)CN1CCC(Nc2nccn(-c3ccc(N4CCOCC4)cc3)c2=O)CC1 [2-43] | 126 | 20 | 3980 |  |  | 
COC(=O)CC(=O)NCc1ccc(Cn2ccnc(NC3CCN(C/C(C)=C/c4ccccc4)CC3)c2=O)cc1 [1-100] | 126 | 25.1 | 1000 |  |  | 
C/C(=C\c1ccccc1)CN1CCC(Nc2nccn(-c3cccc(NCCc4ccccc4)c3)c2=O)CC1 [1-58] | 25.1 | 6.31 | 398 |  |  | 
C/C(=C\c1ccccc1)CN1CCC(Nc2nccn(Cc3ccco3)c2=O)CC1 [6-2] | 126 | 25.1 | 1260 |  |  | 
CCCC(=O)N(CCCn1ccnc(NC2CCN(C/C(C)=C/c3ccccc3)CC2)c1=O)Cc1ccccc1 [1-85] | 158 | 10 | 1260 |  |  | 
O=c1c(NC2CCN(C/C=C/c3ccccc3)CC2)nccn1CCN1CCOCC1 [16-7] | 3980 | 398 | > 10000 |  |  | 
C/C(=C\c1ccccc1)CN1CCC(Nc2nccn(CC(=O)NCCCN(C)C)c2=O)CC1 [1-107] | 31.6 | 1.58 | 2000 |  |  | 
C/C(=C\c1ccccc1)CN1CCC(Nc2nccn(-c3ccc(CNCC4CCCO4)cc3)c2=O)CC1 (stereo not drawn) [1-146] |  |  |  | 7.0 | 8.6 | 6.3
C/C(=C\c1ccccc1)CN1CCC(Nc2nccn(-c3cccc(CNCCCN4CCCC4=O)c3)c2=O)CC1 [1-133] |  |  |  | 7.5 | 8.7 | 5.6
C/C(=C\c1ccccc1)CN1CCC(Nc2nccn(-c3cccc(N)c3)c2=O)CC1 [1-4] | 31.6 | 5.01 | 3160 |  |  | 
C/C(=C\c1ccccc1)CN1CCC(Nc2nccn(Cc3ccc(CNS(=O)(=O)c4ccc(F)cc4)cc3)c2=O)CC1 [1-162] | 100 | 20 | 316 |  |  | 
C/C(=C\c1ccccc1)CN1CCC(Nc2nccn(CCN3C(=O)c4ccccc4C3=O)c2=O)CC1 [2-49] | 158 | 15.8 | 1000 |  |  | 
C/C(=C\c1ccccc1)CN1CCC(Nc2nccn(CC3CCCCO3)c2=O)CC1 (stereo not drawn) [6-1] | 126 | 20 | 1000 |  |  | 
C/C(=C\c1ccccc1)CN1CCC(Nc2nccn(CC(=O)N3CCC(O)(c4ccccc4)CC3)c2=O)CC1 [2-14] | 126 | 7.94 | 5010 |  |  | 
CCOC(=O)CCCCn1ccnc(NC2CCN(C/C(C)=C/c3ccccc3)CC2)c1=O [3-17] | 126 | 15.8 | 794 |  |  | 
C/C(=C\c1ccccc1)CN1CCC(Nc2nccn(CC(=O)N(C)Cc3ccccc3)c2=O)CC1 [1-52] | 63.1 | 2.51 | 631 |  |  | 
C/C(=C\c1ccccc1)CN1CCC(Nc2nccn(Cc3ccc(CNC(=O)NCCc4ccccc4)cc3)c2=O)CC1 [1-125] | 158 | 63.1 | 501 |  |  | 
COc1ccc(-c2nnc(Cn3ccnc(N4CCN(C/C(C)=C/c5ccccc5)CC4)c3=O)o2)cc1 [13-4] | 63.1 | 63.1 | 398 |  |  | 

SMILES | IC50 [1] [nM] | IC50 [2] [nM] | IC50 [3] [nM] | h-α2A pIC50 [1] | h-α2C pIC50 [2] | h-5HTT pIC50 [3]
C/C(=C\c1ccccc1)CN1CCC(Nc2nccn(CC(=O)N(CCN3CCCC3C)Cc3ccc(F)cc3)c2=O)CC1 (stereo not drawn) [1-138] | 7.94 | 0.794 | 1260 |  |  | 
C/C(=C\c1ccccc1)CN1CCC(Nc2nccn(CCCN(C)C(=O)OC(C)(C)C)c2=O)CC1 [1-92] | 100 | 6.31 | 1260 |  |  | 
CSCCn1ccnc(NC2CCN(C/C=C/c3ccccc3)CC2)c1=O [16-12] | 794 | 316 | 2510 |  |  | 
C/C(=C\c1ccccc1)CN1CCC(Nc2nccn(Cc3ccccc3F)c2=O)CC1 [5-11] | 158 | 31.6 | 501 |  |  | 
C/C(=C\c1ccccc1)CN1CCC(Nc2nccn(Cc3ccc4ccccc4c3)c2=O)CC1 [5-35] | 63.1 | 39.8 | 398 |  |  | 
C/C(=C\c1ccccc1)CN1CCC(Nc2nccn(-c3cccc(NS(=O)(=O)Cc4ccccc4)c3)c2=O)CC1 [1-166] | 63.1 | 12.6 | 316 |  |  | 
C/C(=C\c1ccccc1)CN1CCC(Nc2nccn(CCCN(Cc3ccccc3)S(=O)(=O)c3ccccc3)c2=O)CC1 [1-170] | 200 | 12.6 | 251 |  |  | 
C=CCN1CCN(C(=O)Cn2ccnc(NC3CCN(C/C(C)=C/c4ccccc4)CC3)c2=O)CC1 [2-24] | 100 | 3.16 | 5010 |  |  | 
C/C(=C\c1ccccc1)CN1CCN(c2nccn(Cc3ccc(CNC(=O)OC(C)(C)C)cc3)c2=O)CC1 [8-4] | 158 | 79.4 | 1260 |  |  | 
C/C(=C\c1ccccc1)CN1CCC(Nc2nccn(CCC(N)=O)c2=O)CC1 [1-3] | 200 | 31.6 | > 10000 |  |  | 
C/C(=C\c1ccccc1)CN1CCC(Nc2nccn(CC(=O)NCCc3ccccc3)c2=O)CC1 [1-57] | 126 | 3.98 | 3160 |  |  | 
C/C(=C\c1ccccc1)CN1CCC(Nc2nccn(CCCN(C)C)c2=O)CC1 [1-15] | 50.1 | 3.98 | 7940 |  |  | 
C#CCN(C)C(=O)Cn1ccnc(NC2CCN(C/C(C)=C/c3ccccc3)CC2)c1=O [1-28] | 79.4 | 5.01 | 2510 |  |  | 
CSCCn1ccnc(NC2CCN(C/C(C)=C/c3ccccc3)CC2)c1=O [4-1] | 39.8 | 20 | 3160 |  |  | 
C/C(=C\c1ccccc1)CN1CCN(c2nccn(CC(=O)C(C)(C)C)c2=O)CC1 [14-4] | 398 | 63.1 | > 10000 |  |  | 
C/C(=C\c1ccccc1)CN1CCC(Nc2nccn(Cc3cccc(Cl)c3)c2=O)CC1 [5-18] | 126 | 39.8 | 631 |  |  | 
C/C(=C\c1ccccc1)CN1CCC(Nc2nccn(CCCN(Cc3ccccc3)C(=O)CC3CCCC3)c2=O)CC1 [1-86] | 158 | 15.8 | 1000 |  |  | 
C/C(=C\c1ccccc1)CN1CCC(Nc2nccn(CC(=O)c3ccccc3)c2=O)CC1 [5-29] | 15.8 | 10 | 794 |  |  | 
C/C(=C\c1ccccc1)CN1CCC(Nc2nccn(CCCN(Cc3ccccc3)C(=O)c3ccccc3)c2=O)CC1 [1-87] | 200 | 12.6 | 1580 |  |  | 
C/C(=C\c1ccccc1)CN1CCC(Nc2nccn(CCCN)c2=O)CC1 [1-1] | 63.1 | 6.31 | 2000 |  |  | 
C/C(=C\c1ccccc1)CN1CCC(Nc2nccn(Cc3cccc(NCCN(C)C)c3)c2=O)CC1 [1-103] | 25.1 | 3.16 | 200 |  |  | 
C/C(=C\c1ccccc1)CN1CCC(Nc2nccn(CCn3cccc3)c2=O)CC1 [2-47] | 200 | 31.6 | 3980 |  |  | 
C/C(=C\c1ccccc1)CN1CCC(Nc2nccn(Cc3ccc(Br)cc3)c2=O)CC1 [5-16] | 126 | 50.1 | 501 |  |  | 
